Data set [1] relates to dendritic cells. Format: cell-based.
Procedure: Viability is determined from the mortality translated directly by the proportion of PI signal.
Data set [2] has as its system dendritic cells. The experiment in a line: Dendritic cell maturation (CD86 B7.2 expression, allergenic effect). As to conditions: control substances, concentration not given. The class given is cell-based, human. Here is the method:
Three groups of cells are analyzed: 1) those which have not been exposed to oligorhamnosides or the selected activation signals, which will be used as negative controls, 2) those which were incubated for 24 hours with the activation signals, which will be used as positive controls, and 3) those which had been in contact with the oligorhamnosides for 24 hours. The culture medium used is a classical medium of type RPMI 1640 (Bioproducts), supplemented with 10% FCS, glutamine (2 mM) and the antibiotics penicillin and streptomycin (Bioproducts). The rinse liquid used is a PI buffer (Bioproducts). The cellular activator used is INFγ (SIGMA). The allergenic effect is reflected by the maturation of the dendritic cells and the expression of the CD86 B7.2 receptor. The more this receptor is expressed, the higher the proportion of mature cells and the more the rhamnosylated derivative studied has an allergenic effect.

Data set [3] relates to LTB4 released by human neutrophilic leukocytes. The experiment in a line: Assay of LTB4 released by human neutrophilic leukocytes. Format: cell-based. Conditions: stimulation buffer, 0.1 μM. The method, then:
(§1) Neutrophils are isolated from normal human blood and purified by an original method. They are then activated by a stimulation buffer which causes the release of two types of lipid molecules, arachidonic acid derivatives, arising from the cyclooxygenase and lipoxygenase pathways, namely the leukotriene LTB4 and the prostaglandin PGE2. This stimulation buffer contains in particular Ca^2+ and Mg^2+ ions. These assays are carried out by means of an ELISA-type commercial assay kit.
The results represent the means of the values assayed in two supernatants of cells stimulated during the same experiment.

The subject of the next data set is keratinocytes. Briefly: Toxicity test: viability of keratinocytes. The class given is cell-based. As to conditions: for % viability: vs control 100%. From the text:
1) Principles of Cellular Viability Measurement Techniques • MTT [3-(4,5-[…])-2,5-diphenyl tetrazolium bromide] reduction technique (sold by Sigma).
This technique corresponds to a […] test allowing quantification of living, metabolically active cells in a non-radioactive manner. MTT is a cationic molecule which is bound to the membranes of mitochondria in a potential-dependant fashion. On the level of the mitochondria, MTT will be reduced to formazan blue by mitochondrial dehydrogenase. The living cells are thus colored blue, in contrast with the dead cells which remain transparent. The measure of viability is then carried out by measurement of the optical density using an automatic reader.
This method of analysis, however, seems to be better adapted for adherent cells (keratinocyte-type) than for non-adherent cells (monocytes and dendritic cells). Another study was thus envisaged to conclude on the cytotoxicity of the oligorhamnosides with respect to the differentiated cells analyzed, namely flow cytometry in the presence of propidium iodide. • XTT tetrazolium salt reduction technique.
This is a technique allowing quantification of cellular proliferation and of the number of living (metabolically active) cells, without the incorporation of radioactive isotopes. XTT, yellow in color, is a cationic molecule which is bound to the membranes of mitochondria in a potential-dependant fashion, as does MTT.
On the level of the mitochondria, XTT will be reduced to formazan (orange) by mitochondrial tetrazolium reductase. […] Indeed, the reduction product is soluble within the cell. The method is thus faster. Living cells, in the absence and presence of a treatment become colored, in contrast with dead cells which remain colorless. The level of formazan product is detected with the spectrophotometer at a wavelength of 450 nm and is directly proportional to the number of metabolically active cells.
2) Toxicity Tests • Keratinocytes were isolated and placed in culture from human skin biopsies. Measurements of optical density (absorbance) of the 4 wells treated with the same product concentration were averaged. This average was compared with the average of the measurements obtained for the 4 control wells (Student's t-test—comparison of means—significant difference at 95% if p<0.05 and 99% if p<0.01).
The viabilities of the treated cells are expressed as a percentage compared to the control (untreated cells) of 100% (OD treated/OD control×100).

Data set [4] has as its system 6-ketoPGF1α released by NHK. Briefly: Assay of prostaglandin 6-ketoPGF1α after stimulation of keratinocytes (ELISA). Format: cell-based, human. Conditions: for inhibition at 1 µM: Homo sapiens, Keratinocyte, 2 h. Here is the method:
Prostaglandin I2 (PGI2) is an unstable metabolite of the arachidonic acid degradation pathway. Like prostaglandin E2, it is a mediator of inflammation with vasodilatory properties. The instability of PGI2 lies in its rapid conversion (non-enzymatic hydration) to 6-keto prostaglandin F1α (6-ketoPG1α). It is thus this prostaglandin which is measured as a marker for PGI2 synthesis. PMA (phorbol-12-myristate-13-acetate) is an activator of protein kinase C. It is a non-physiological activator which mimics the effect of cytokines, including IL-1β on NHK, and encourages the cell to release a lipid molecule, the prostaglandin 6-ketoPGF1α. This prostaglandin is assayed by means of an ELISA. The two activators IL-1β and PMA are used. Indomethacin, an aspirin-type analgesic, is an anti-inflammatory drug (NSAID) which […]. It is used to inhibit the release of 6-ketoPGF1α. Two experiments were carried out. The first consists of pretreating the NHK with oligorhamnosides for 4 hours and then monitoring the stimulation for 2 hours in the presence of oligorhamnosides. A second experiment was carried out in which the pretreatment with oligorhamnosides was extended to 12 hours.
For orientation: ELISA stands for enzyme-linked immunosorbent assay.

Data set [5] concerns PGE2 released by human neutrophilic leukocytes. The experiment in a line: Assay of PGE2 released by human neutrophilic leukocytes. Format: cell-based. Here is the method:
as §1, with “kit. The results represent the means of the values assayed in two supernatants of cells stimulated during the same experiment.” for “kit.”

For a further data set, the system named is endothelial cells. Briefly: Cytotoxicity test (MTT) on endothelial cell lines. The class given is cell-based. Here is the method:
• Endothelial cells were placed in culture, immortalized and stabilized in their phenotype. The cell lines studied were appendix endothelial cells, brain microvascular endothelial cells, mesenteric lymphatic ganglia endothelial cells, peripheral lymphatic ganglia endothelial cells and skin microvascular endothelial cells.
The cytotoxicity test was carried out by means of a biochemical test on the transformation of a tetrazolium salt, MTT. […] Viability is indeed always greater than 85%, and this is true for all of the cells lines studied.

Setting [6] is: IL-1β stimulation 2 hours 1 ng/ml, 1 μM.
The mark [7] stands for this setting: PMA stimulation 2 hours 10 ng/ml, 1 μM.

Each structure is given as a SMILES string.

In the case of `C[S+](C)[O-]` [DMSO control], the “Viability (propidium iodide, PI)” value in the data set with dendritic cells [1] is listed as 1.27%. Also, in the data set on dendritic cells [2], the “CD86 B7.2 (Maturation)” value was 0.17%.

Consider `CC(Cc1ccc(O)c(O)c1)C(C)Cc1ccc(O)c(O)c1` (stereo not shown) [NDGA, nordihydroguaiaretic acid], for which, in data set [3], the “% inhibition (LTB4 released)” value worked out at 73% and the “LTB4 released, Stimulation” value came out at 684 ± 185 pg/mL.

As for `C[C@H](O)[C@H](O)[C@@H](O)[C@@H](O)C=O` [Rhamnose, rhamnose], the “% viability” value in the data set on keratinocytes (0.001 mg/ml) is reported as 95%; in the data set with keratinocytes (0.01 mg/ml), 100%; with keratinocytes (0.1 mg/ml), 98%; in the data set with keratinocytes (1 mg/ml), 104%. The “cytotoxicity (in words)” value in the data set with keratinocytes (even for the highest concentrations) is given as “does not exhibit cytotoxicity”.

In general, inhibition refers to the share of the control response that was lost under treatment. In the case of `COc1ccc2c(c1)c(CC(=O)O)c(C)n2C(=O)c1ccc(Cl)cc1` [indomethacin], the inhibition at 1 µM in data set [4] (setting [6]) was determined as 17%; in data set [4] (setting [7]), 37%; in data set [5] (Homo sapiens, Leukocyte, stimulation buffer), 69%. Besides, the “Mean 6-ketoPGF1α” value in data set [4] (setting [6]) is recorded as 22.6 ± 3.4 pg/ml/μg proteins; in data set [4] (setting [7]), 20.9 ± 4.9 pg/ml/μg proteins; in data set [4] (Table 7 experiment, IL-1β stimulation 2 hours 1 ng/ml, concentration not given), 22.6 ± 3.4 pg/ml/μg proteins. For the same molecule, the “PGE2 released, Without stimulation” value in data set [5] (1 μM) amounted to 4.5 ± 0 pg/mL. The “PGE2 released, Stimulation” value in data set [5] (stimulation buffer, 1 μM) was 6.8 ± 1 pg/mL.

With `CCCCCOC1O[C@@H](C)[C@H](O)[C@@H](O)[C@H]1O` (stereo partly shown) [pentyl-rhamnoside], in the data set on endothelial cells (all of the cell lines studied), the Viability result was “greater than 85%”. Further, in the data set with endothelial cells (endothelial cell lines), the “toxicity (in words)” value is recorded as “no toxicity”.
